Source: patent US20100160217A1 (priority 2005, published 2010)

Key:
UNC-49/GABAA receptors = experiment: Electrophysiology: GABA-induced current in wild type and unc-74 animals; assay type: cell-based, C. elegans; conditions: unc-74 mutant animals
C. elegans [1] = experiment: Aldicarb resistance assay (paralysis on drug plates); assay type: in vivo; conditions: unc-74 animals (data not shown)
Procedure: (§1) Pharmacological resistance assays. Plates were equilibrated to room temperature, weighed, and equal volumes of different concentrations of levamisole or aldicarb were added to make plates containing specific concentrations of drug. Once plates dried, they were seeded with a drop of OP50 and incubated overnight at room temperature. A minimum of 15 young adult animals (levamisole) or L4 animals (aldicarb) were placed on drug plates and maintained for two (levamisole) or eight (aldicarb) hours. The percentage of animals on each plate that were paralyzed in response to mild stimulation was determined. Data presented represents the mean +/− SEM of n=number of plates.

[2] = test system: levamisole sensitive nAChR
Procedure: (§2) Electrophysiology was performed as previously described (Richmond and Jorgensen, 1999a).
(§3) To directly examine levamisole sensitive nAChR function, electrophysiological analysis was performed on wild type and unc-74 mutant animals (FIG. 2). Intact body wall muscles of dissected animals were voltage clamped and the amount of current elicited in response to levamisole was measured.

C. elegans [3] = test system: C. elegans
Procedure: as §1

nAChRs = conditions: unc-74 animals; reduction not greater than in unc-38 mutants
Procedure: as §2, §3

In the case of NCCCC(=O)O [GABA], the “GABA induced currents compared with wild type” value (UNC-49/GABAA receptors) is reported as “equivalent”.

In the case of CNC(=O)O/N=C/C(C)(C)SC [aldicarb], the resistance to aldicarb (C. elegans [1]) is reported as “only partially resistant”.

c1ccc([C@H]2CN3CCSC3=N2)cc1 [levamisole] was tested, and the “inward current elicited by focal pulses of levamisole” value [2] was “around 200 pA”, the levamisole induced current ([2]; unc-74 mutants, voltage clamped muscle cells) was “completely abolished” and the “resistance to levamisole (paralysis)” value (C. elegans [3]; unc-74 mutant animals, all concentrations tested, FIG. 1(B)) was “completely resistant”. For the same molecule, the response to levamisole (C. elegans [3]; unc-74 mutants, concentrations that completely paralyze wild type) was “no response”, the “concentration of levamisole at which animals become paralyzed” value (C. elegans [3]; wild type animals, levamisole resistance curves, FIG. 1(B)) was about 0.15 mM and the “time to hypercontraction and complete paralysis” value (C. elegans [3]; wild type animals, solid media, millimolar concentrations of levamisole (0.2 mM), FIG. 1(A)) was about 2 h.

CN1CCCC1c1cccnc1 (stereo not drawn) [nicotine] was tested, and the “amplitude of nicotine current relative to wild type” value (nAChRs) was “reduced”.
